Consider one molecule from article PMC4710668, “Bioactivation of food genotoxicants 5-hydroxymethylfurfural and furfuryl alcohol by sulfotransferases from human, mouse and rat: a comparative study” (Archives of Toxicology, 2014).

Structures are written as SMILES.

Common to all, as to experiment: FFA sulfoconjugation assay (N6-MF-A formation with adenosine as scavenger)
Holding throughout (type): biochemical

The target in one experiment is T1, mSult2a2 (Mus musculus, UniProt P50236).
T1 construct: made in house; host or cells: Salmonella typhimurium TA1538 (cytosolic fraction, enzyme not purified)
T1 sequence (P50236 1-285): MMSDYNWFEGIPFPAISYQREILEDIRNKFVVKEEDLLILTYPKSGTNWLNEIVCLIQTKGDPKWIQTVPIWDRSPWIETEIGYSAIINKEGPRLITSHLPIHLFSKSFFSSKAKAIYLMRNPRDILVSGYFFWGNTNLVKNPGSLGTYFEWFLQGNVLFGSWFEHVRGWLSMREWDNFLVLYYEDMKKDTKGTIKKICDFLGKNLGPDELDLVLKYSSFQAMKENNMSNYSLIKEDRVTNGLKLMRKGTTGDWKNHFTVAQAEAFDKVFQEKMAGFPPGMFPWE
The method, then: (§1) Cytosolic fractions containing individual SULT forms were prepared from transgenic S. typhimurium TA1538. Table S1 in the Supplementary Material provides a summary of the thirty SULTs used in the current study together with references describing the cloning of the respective S. typhimurium TA1538 strains. The expressed SULT forms are denoted with the prefixes h, m and r for human, mouse and rat enzymes, respectively. Bacteria were grown in Luria Broth medium containing ampicillin (100 µg/ml) by stirring for 8 h at 200 revolutions/min at 37 °C. The bacterial suspensions were centrifuged at 5,000 g for 10 min. The sediments were washed twice with 25 ml of 10 mM potassium phosphate buffer (pH 7.4)/50 mM potassium chloride (KCP buffer) and centrifuged again. The pellets were taken up in 800 µl KCP buffer and sonicated thrice for 15 s with 30 s pauses in between. The soluble fraction was attained by centrifuging for 1 h at 100,000 g. The supernatants (in the following termed cytosolic preparations) were frozen at −80 °C. The protein concentrations were determined according to a bicinchoninic acid (BCA) assay protocol. The SULT concentrations in the cytosolic preparations were estimated after electrophoretic separation and immunodetection using inclusion bodies of different SULT forms as standards (Teubner et al. [2007]). The preparation of SULT inclusion bodies and the immunodetection of SULTs is described in the Supplementary Material, which also contains a representative immunoblot of different amounts of rSult1a1standard and a cytosolic preparation of S. typhimurium expressing rSult1a1 (Fig. S1).
(§2) The reaction mixtures were prepared as described for HMF. In addition, they contained 10 mM adenosine as a nucleophilic scavenger. Following incubation for 20 min at 37 °C, sulfoconjugation reactions were stopped by adding 100 µl cold methanol containing 175 fmol of [^15N5]N ^6-MF-A as the internal standard, mixed and centrifuged at 15,000 g for 10 min. The clear supernatants were subjected to UPLC-MS/MS analyses. Incubations were performed as quadruplicates. At higher concentrations, FFA reacts spontaneously with adenosine at low, but detectable, levels. To correct for the SULT-independent adduct formation, mixtures with SULT-deficient cytosols were carried along simultaneously in duplicate. Controls were subtracted from the experimental samples.
(§3) The ribonucleoside adduct N ^6-((furan-2-yl)methyl)-adenosine (N ^6-MF-A) was analyzed by isotope-dilution UPLC-MS/MS with the same system described above using a HSS T3 column (1.8 µm, 2.1 × 100 mm, Waters). Samples of 8 µl were eluted with 10 mM ammonium bicarbonate buffer, pH 8.0 (A) and methanol (B) using an 6-min gradient from 98 % solvent A to 15 % solvent A at 0.35 ml/min flow rate (Yin et al. [2013]). The electrospray interface of the mass spectrometer operated in the positive ion mode. The fragmentations of N ^6-MF-A into the aglycone cation [N ^6-((furan-2-yl)methyl)-adenine-H]^+ (m/z = 348.1 → 216.1), the cleavage of the 2-methylfuranyl cation (m/z = 348.1 → 81.0) and the release of [N ^6-methyl-adenine-H]^+ (m/z = 348.1 → 148.0) were monitored together with the corresponding fragmentations of the isotope-labeled internal standard [^15N5]N ^6-MF-A for the formation of the aglycone (m/z = 353.1 → 221.1), the 2-methylfuran cation (m/z = 353.1 → 81.0) and ^15N5-labeled N ^6-methyl-adenine (m/z = 353.1 → 153.0). The N ^6-MF-A content of the incubation mixture was calculated from the ratio of peak areas resulting from the total ion current of all three MRM signals of the analyte. For the fragmentation of N ^6-MF-A ([^15N5]N ^6-MF-A), collision energies were 20, 25 and 35 eV for the transitions m/z = 348.1 → 216.1 (m/z = 353.1 → 221.1), m/z = 348.1 → 148.0 (m/z = 353.1 → 153.0) and m/z = 348.1 → 81.0 (m/z = 353.1 → 81.0), respectively. […]

Another experiment addresses T2, rSult1b1 (Rattus norvegicus, UniProt P52847).
T2 construct: made in house; host or cells: Salmonella typhimurium TA1538 (cytosolic fraction, enzyme not purified)
Here is the method: as §1, §2, §3

A further experiment deals with T3, hSULT1C1 (Homo sapiens, UniProt O00338).
T3 construct: made in house; host or cells: Salmonella typhimurium TA1538 (cytosolic fraction, not purified)
T3 sequence (O00338 whole entry): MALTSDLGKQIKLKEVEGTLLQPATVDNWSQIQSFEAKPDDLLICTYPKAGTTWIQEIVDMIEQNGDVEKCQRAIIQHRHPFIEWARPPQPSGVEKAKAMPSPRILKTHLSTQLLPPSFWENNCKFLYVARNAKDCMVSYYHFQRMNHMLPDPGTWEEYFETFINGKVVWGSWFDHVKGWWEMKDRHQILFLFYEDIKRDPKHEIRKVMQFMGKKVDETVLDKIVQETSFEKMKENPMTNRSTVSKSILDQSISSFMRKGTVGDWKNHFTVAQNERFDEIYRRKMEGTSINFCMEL
The method, then: as §1, §2, §3

A further experiment deals with T4, mSult1c2 (Mus musculus, UniProt Q9D939).
T4 construct: made in house; host or cells: Salmonella typhimurium TA1538 (cytosolic fraction, enzyme not purified)
T4 sequence (Q9D939 whole entry): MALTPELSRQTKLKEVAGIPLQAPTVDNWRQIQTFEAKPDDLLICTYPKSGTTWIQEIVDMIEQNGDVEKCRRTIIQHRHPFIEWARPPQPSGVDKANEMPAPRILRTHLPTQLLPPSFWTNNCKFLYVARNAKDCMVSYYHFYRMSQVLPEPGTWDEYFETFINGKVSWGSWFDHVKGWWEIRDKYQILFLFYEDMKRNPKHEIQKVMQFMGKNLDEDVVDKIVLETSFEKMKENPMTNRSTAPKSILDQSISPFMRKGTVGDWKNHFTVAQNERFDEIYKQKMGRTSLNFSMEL
The method, then:
as §1, §2, §3

The next experiment deals with T5, mSult1d1 (Mus musculus, UniProt Q3UZZ6).
T5 construct: made in house; host or cells: Salmonella typhimurium TA1538 (cytosolic fraction, enzyme not purified)
T5 sequence (Q3UZZ6 whole entry): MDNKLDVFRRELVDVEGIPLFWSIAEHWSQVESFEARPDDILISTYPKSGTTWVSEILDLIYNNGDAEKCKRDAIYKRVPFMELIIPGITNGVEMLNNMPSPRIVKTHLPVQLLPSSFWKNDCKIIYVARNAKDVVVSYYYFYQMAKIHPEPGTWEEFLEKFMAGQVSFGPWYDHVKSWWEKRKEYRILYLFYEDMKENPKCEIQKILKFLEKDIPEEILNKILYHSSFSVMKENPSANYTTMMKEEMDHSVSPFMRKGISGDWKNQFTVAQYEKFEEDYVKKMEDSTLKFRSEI
Here is the method: as §1, §2, §3

For another experiment, the target named is T6, hSULT2B1b (Homo sapiens, UniProt O00204).
T6 construct: made in house; host or cells: Salmonella typhimurium TA1538 (cytosolic fraction, not purified)
T6 sequence (O00204 1-365): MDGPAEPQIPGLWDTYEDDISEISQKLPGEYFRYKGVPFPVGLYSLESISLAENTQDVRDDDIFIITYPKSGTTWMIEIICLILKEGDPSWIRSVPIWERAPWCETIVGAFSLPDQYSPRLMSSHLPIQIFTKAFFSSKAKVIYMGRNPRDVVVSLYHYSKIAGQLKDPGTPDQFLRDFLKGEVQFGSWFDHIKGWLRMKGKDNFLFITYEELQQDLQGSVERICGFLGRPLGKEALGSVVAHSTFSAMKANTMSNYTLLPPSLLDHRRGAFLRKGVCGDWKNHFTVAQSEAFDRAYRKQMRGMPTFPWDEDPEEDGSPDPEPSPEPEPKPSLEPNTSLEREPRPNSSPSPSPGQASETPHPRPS
The method, then:
as §1, §2, §3

T2 sequence (P52847 whole entry): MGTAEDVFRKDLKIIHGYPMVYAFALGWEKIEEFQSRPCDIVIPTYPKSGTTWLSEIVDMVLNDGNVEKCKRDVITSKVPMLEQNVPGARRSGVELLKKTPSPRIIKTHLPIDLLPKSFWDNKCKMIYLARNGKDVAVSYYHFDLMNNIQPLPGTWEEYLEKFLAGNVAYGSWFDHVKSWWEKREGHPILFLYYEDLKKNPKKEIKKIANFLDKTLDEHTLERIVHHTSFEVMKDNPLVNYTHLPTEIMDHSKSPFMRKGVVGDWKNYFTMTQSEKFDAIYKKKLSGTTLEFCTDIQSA

Turning to `OCc1ccco1` [FFA, furfuryl alcohol], the “Rate of N6-MF-A formation” value is recorded as less than 18 fmol N ^6-MF-A/mg/min at mSult2a2 (0.1 mM FFA); less than 20 fmol N ^6-MF-A/mg/min at mSult2a2 (1 mM FFA); 216 ± 3 fmol N ^6-MF-A/mg/min on mSult2a2 (10 mM FFA); less than 18 fmol N ^6-MF-A/mg/min at rSult1b1 (0.1 mM FFA); 34.3 ± 1.0 fmol N ^6-MF-A/mg/min on rSult1b1 (1 mM FFA); 314 ± 4 fmol N ^6-MF-A/mg/min at rSult1b1 (10 mM FFA). Further, the “Rate of N6-MF-A formation” value at hSULT1C1 (0.1 mM FFA) was less than 18 fmol N ^6-MF-A/mg/min; on hSULT1C1 (1 mM FFA), less than 20 fmol N ^6-MF-A/mg/min; at hSULT1C1 (10 mM FFA), less than 44 fmol N ^6-MF-A/mg/min; on mSult1c2 (0.1 mM FFA) it was less than 18 fmol N ^6-MF-A/mg/min; at mSult1c2 (1 mM FFA) it was less than 20 fmol N ^6-MF-A/mg/min; at mSult1c2 (10 mM FFA), less than 44 fmol N ^6-MF-A/mg/min. For the same molecule, the “Rate of N6-MF-A formation” value at mSult1d1 (0.1 mM FFA) was 52.5 ± 1.7 fmol N ^6-MF-A/mg/min; on mSult1d1 (1 mM FFA), 468 ± 6 fmol N ^6-MF-A/mg/min; at mSult1d1 (10 mM FFA), 2,610 ± 30 fmol N ^6-MF-A/mg/min; at hSULT2B1b (0.1 mM FFA), less than 18 fmol N ^6-MF-A/mg/min; on hSULT2B1b (1 mM FFA), less than 20 fmol N ^6-MF-A/mg/min; on hSULT2B1b (10 mM FFA), less than 44 fmol N ^6-MF-A/mg/min. Moreover, the “Rate of N6-MF-A formation (corr.)” value at mSult1d1 (1 mM FFA, corrected by actual SULT concentration in the cytosolic preparation) is 4,260 ± 60 fmol N ^6-MF-A/mg/min.
